# Literature values as cited in patent US20240374563A1, “ANTICHOLINERGIC COMPOUNDS FOR USE IN TREATING NEUROMUSCULAR DISORDERS” (UNIVERSITY OF MONTRÉAL, priority 2022, published 2024).
# Test system: ALS patients
# Conditions: cited from earlier work
smiles,measurement,value
Nc1nc2ccc(OC(F)(F)F)cc2s1 [Riluzole],share of ALS patients who benefit,20%
